Data on six molecules can be found in paper PMC8296573, “Synthesis and Biological Evaluation of Fingolimod Derivatives as Antibacterial Agents” (ACS Omega, 2021).

In data set [1] the test system is C. violaceum ATCC 31532 (wild type). As to the kind of experiment: Quorum sensing inhibition assay (violacein) with parallel resazurin viability. As to conditions: wild-type strain. It counts as cell-based, Chromobacterium violaceum. The method, then: (§1) The QS inhibitory activity of the compounds was assessed as described previously.[31],[47] Briefly, two QS reporter strains, C. violaceum ATCC 31532 and the violacein-negative, mini-Tn5 mutant of C. violaceum CV026 (NCTC 13278), were grown on LBA (for CV026, the agar was supplemented with kanamycin at 100 μg mL^–1) overnight at 27 °C. Colonies were suspended in PDYT (0.5% peptone, 0.3% D-glucose, 0.25% yeast extract, 0.05% L-tryptophan, w/v) to reach an OD600 of 0.02. The CV026 culture was supplemented with C6-HSL (N-hexanoyl-L-homoserine lactone) (10007896, Cayman Chemical, MI) at 0.5 μM to induce the QS-moderated synthesis of violacein. For each strain, 200 μL of bacterial culture was added per well in two identical 96-well plates containing the compounds (2 μL per well for a final DMSO concentration of 1%). In each 96-well plate, untreated cells were used as negative controls and quercetin (Q4951, Sigma-Aldrich) and azithromycin (PZ0007, Sigma-Aldrich) were included as positive controls for QS inhibition and cell viability (bactericidal activity), respectively. The plates were incubated at 27 °C under aerobic conditions (200 rpm) for 22 h.
(§2) The synthesized and nonsoluble violacein was collected from the first 96-well plate by centrifugation (4000 rpm, for 15 min, 20 °C), and the supernatants were removed. Violacein was dissolved in 100 μL per well of 96% (v/v) ethanol and was separated from cells by centrifugation as described above. The supernatant containing violacein was then transferred to a new 96-well plate, and the absorbance was measured at 595 nm using a Multiskan Sky Microplate spectrophotometer. To detect any bactericidal effects, the viability of the cells was measured in the second replica plate by adding 10 μL of 400 μM resazurin in each well and incubating the plate for 30 min in the dark at 27 °C (220 rpm). After centrifugation of the plate to separate the cells from the solution, 100 μL of each well were transferred into a new 96-well plate and the fluorescence was recorded as described above using the Varioskan LUX multimode plate reader.

Another data set concerns A549. As to the kind of experiment: Cytotoxicity, resazurin staining assay. The settings on record: 24 h incubation. It counts as cell-based, human. An outline of the steps: (§3)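 A549 and HEp-2 cells (1 × 10^4/well) attached for 24 h before compound addition; HL-60 seeded directly with compounds; 0.25% DMSO final, 24 h exposure. Adherent cells then washed and given 20 μM resazurin for 2 h; HL-60 received resazurin directly for 4 h; fluorescence read-out, 1% Triton X-100 as positive control.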

For a further data set, the system named is HEp-2. The data set can be described thus: Cytotoxicity, resazurin staining assay. The settings on record: 24 h incubation. The data set is classed as cell-based, human. An outline of the steps: as §3
For orientation: Resazurin is reduced to fluorescent resorufin, in cell work by metabolically active cells.

The test system of the next data set is HL-60. As to the kind of experiment: Cytotoxicity, resazurin staining assay. The settings on record: 24 h incubation. The data set is classed as cell-based, human. An outline of the steps: as §3
Data set [2] relates to C. violaceum CV026 (AHL-deficient mutant). As to the kind of experiment: Quorum sensing inhibition assay (violacein) with parallel resazurin viability. It counts as cell-based, Chromobacterium violaceum. The settings on record: mutant strain. The method, then:
as §1, §2

A further data set can be described thus: Solubility in DMSO. The data set is classed as physicochemical.
The subject of data set [3] is S. aureus ATCC 25923. As to the kind of experiment: S. aureus attachment on LDPE tubes, alone or in coculture with differentiated HL-60 cells. The data set is classed as cell-based, Staphylococcus aureus. As to conditions: 25 μM, 24 h. As for the experimental part: The coculture system was as previously described.[40] Briefly, the bacteria were prepared as described above and the concentration was adjusted to 2 × 10^7 CFU mL^–1 in RPMI 1640. The media of the differentiated HL-60 cells was refreshed with RPMI 1640 24 h before the experiments to remove possible traces of antibiotics. On the day of the experiment, the cells were counted and adjusted to a concentration of 2 × 10^5 cells mL^–1 in RPMI 1640. Each suspension (bacterial and differentiated HL-60 cells, 500 μL of each) was added on 1-cm-long sections of a sterilized fine bore LDPE tubing (Smiths Medical ASD, Minneapolis, MN) in 24-well plates (Nunclon Δ surface, Nunc, Roskilde, Denmark). Fingolimod was also added to the wells at a concentration of 25 μM (0.25% DMSO). Coculture controls with no added compound were included, as well as bacterial controls without differentiated HL-60 cells with and without fingolimod. The plates were incubated for 24 h in the same conditions as for cell maintenance. Then, the LDPE tubes were gently washed with TSB to remove adhering planktonic cells and transferred to Eppendorf tubes containing 1 mL of 0.5% (w/v) Tween 20-TSB solution. Next, the tubes were sonicated in a water bath sonicator (Branson Ultrasonics, Danbury, CT) for 5 min at 35 kHz. The tubes were vortexed for 20 s prior to and after the sonication step. […]

In data set [4] the test system is S. aureus ATCC 25923. More on the design: method as in PMID 33233348. As to conditions: previously found; cited from earlier work.
For a further data set, the system named is A. baumannii NCTC 13423. Also noted: method as in PMID 33233348. The settings on record: previously reported; cited from earlier work.

What is called CC50 is the concentration giving 50% cytotoxicity.

In brackets after ≈: the same amount, converted by molar mass.

On to `CCCCCCCCCCc1ccc(CCC(N)(CO)CO)nc1` [Compound 62, 2-Amino-2-[2-(5-decylpyridin-2-yl)ethyl]propane-1,3-diol], for which, in [1], the “QSI activity compared with fingolimod” value was “significantly worse than fingolimod”.

In the case of “2-Amino-2-(4-decylbenzyl)propane-1,3-diol [Compound 45]”, the CC50 is 27.4 ± 15.1 µM in the data set with A549, more than 40 µM with HEp-2 and 3.2 ± 1 µM in the data set on HL-60.

Take `CCCCCCCCc1ccc2cc(CC(N)(CO)CO)ccc2c1` [Compound 79, 2-Amino-2-[(6-octylnaphthalen-2-yl)methyl]propane-1,3-diol]: the “QSI activity compared with fingolimod” value in data set [1] and in [2] was “significantly lower QSI activity than fingolimod” each time.

As to `CCCCCCCCc1ccc2ccc(CC(N)(CO)CO)nc2c1` [Compound 82, 2-Amino-2-[(7-octylquinolin-2-yl)methyl]propane-1,3-diol], the “QSI activity compared with fingolimod” value in data set [2] is reported as “significantly better QSI activity”.

Regarding `CCCCCCCCCCc1ccc2nc(CCC(N)(CO)CO)ccc2c1` [Compound 81, 2-Amino-2-[2-(6-decylquinolin-2-yl)ethyl]propane-1,3-diol], the “Solubility in dimethyl sulfoxide (DMSO)” value in “Solubility in DMSO” was “not fully soluble”.

For `CCCCCCCCc1ccc(CCC(N)(CO)CO)cc1` [fingolimod, Fingolimod], the “Bacterial attachment on LDPE tubes” value in the data set on S. aureus ATCC 25923 [3] (in combination with HL-60 cells, vs coculture control (p = 0.042)) is recorded as “significant reduction”. Moreover, the “Numbers of attached viable S. aureus on LDPE tubes” value with S. aureus ATCC 25923 [3] (in the absence of HL-60 cells, vs monoculture control (p = 0.013)) is on record as “significantly reduced”. Further, the “Solubility in dimethyl sulfoxide (DMSO)” value in “Solubility in DMSO” is recorded as “not fully soluble”. In addition, in the data set with S. aureus ATCC 25923 [4], the “MIC in pre-exposure, S. aureus” value was 15 µM (≈ 4.61 µg/mL). Moreover, the “MIC A. baumannii” value in the data set on A. baumannii NCTC 13423 was 25 µM (≈ 7.69 µg/mL).
